Assay results: PubChem BioAssay (NCI)
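These data come from cells grown in 96-well plates and exposed to compound for 48 hours at five concentrations. Definition used: TGI = concentration required for complete inhibition of growth.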

What was measured:
Assay in all cases: inhibition of tumour cell growth, NCI panel, 48 h
HCT-15 colon = system: HCT-15 colon
SF-268 CNS = system: SF-268 CNS
NCI/ADR-RES ovarian = system: NCI/ADR-RES ovarian
MALME-3M melanoma = system: MALME-3M melanoma
SN12C renal = system: SN12C renal
SW-620 colon = system: SW-620 colon
UO-31 renal = system: UO-31 renal
A498 renal = system: A498 renal
NCI-H23 lung = system: NCI-H23 lung
PC-3 prostate = system: PC-3 prostate
M14 melanoma = system: M14 melanoma
BT-549 breast = system: BT-549 breast
OVCAR-4 ovarian = system: OVCAR-4 ovarian
OVCAR-5 ovarian = system: OVCAR-5 ovarian
NCI-H226 lung = system: NCI-H226 lung
IGROV1 ovarian = system: IGROV1 ovarian
HL-60(TB) leukemia = system: HL-60(TB) leukemia
UACC-257 melanoma = system: UACC-257 melanoma
RXF 393 renal = system: RXF 393 renal

SMILES	TGI (HCT-15 colon)	TGI (SF-268 CNS)	TGI (NCI/ADR-RES ovarian)	TGI (MALME-3M melanoma)	TGI (SN12C renal)	TGI (SW-620 colon)	TGI (UO-31 renal)	TGI (A498 renal)	TGI (NCI-H23 lung)	TGI (PC-3 prostate)	TGI (M14 melanoma)	TGI (BT-549 breast)	TGI (OVCAR-4 ovarian)	TGI (OVCAR-5 ovarian)	TGI (NCI-H226 lung)	TGI (IGROV1 ovarian)	TGI (HL-60(TB) leukemia)	TGI (UACC-257 melanoma)	TGI (RXF 393 renal)
C=CC1CCC[N+]1(CC(=O)OCC)Cc1ccccc1 (stereo not drawn)	> 100 µM	> 100 µM	> 100 µM	> 100 µM	> 100 µM	> 100 µM	> 100 µM	> 100 µM	> 100 µM	> 100 µM	> 100 µM	> 100 µM	> 100 µM	> 100 µM	> 100 µM	> 100 µM	> 100 µM	> 100 µM	
COc1ccc2nccc(SCC(=O)O)c2c1	> 100 µM	> 100 µM	> 100 µM		> 100 µM	> 100 µM	> 100 µM	> 100 µM	> 100 µM	> 100 µM	> 100 µM	> 100 µM	> 100 µM	> 100 µM	> 100 µM	> 100 µM	> 100 µM	> 100 µM	> 100 µM
CCCCCCc1ccc(C(=O)NO)cc1	> 100 µM	> 100 µM	51.9 µM		64.5 µM	> 100 µM	48.7 µM	81.7 µM	> 100 µM	> 100 µM	> 100 µM	> 100 µM	84.4 µM	> 100 µM	> 100 µM	> 100 µM	53.8 µM	> 100 µM	> 100 µM
COC(=O)[C@]12CC[C@H]3CC[C@H]([C@H]31)[C@H](c1ccccc1)N2	38.4 µM	41.5 µM	33.4 µM		29.5 µM	53.2 µM	31.2 µM	31.9 µM	37.2 µM	38.7 µM	32.7 µM	34.3 µM	31.6 µM	31.4 µM	31.6 µM	34.3 µM	47.6 µM	29.6 µM	30.9 µM
O=S(=O)(c1ccccc1)C(c1ccc2ccccc2n1)S(=O)(=O)c1ccccc1	> 100 µM	> 100 µM	> 100 µM	> 100 µM	> 100 µM	> 100 µM	> 100 µM	> 100 µM	> 100 µM	> 100 µM		> 100 µM	> 100 µM	> 100 µM	> 100 µM	> 100 µM	> 100 µM	> 100 µM	> 100 µM
O=c1c2cc(-c3ccccc3)sc2nc2n1N=C(c1ccc(Cl)cc1)CS2	> 100 µM	> 100 µM	> 100 µM	> 100 µM	> 100 µM	> 100 µM	> 100 µM	> 100 µM	> 100 µM	> 100 µM		> 100 µM	> 100 µM	> 100 µM	> 100 µM	> 100 µM	> 100 µM	> 100 µM	> 100 µM
N#Cc1c(=O)c2ccccc2n2c1[nH]c1ccccc12	> 100 µM	> 100 µM	70.4 µM		> 100 µM	> 100 µM	> 100 µM	> 100 µM	> 100 µM	> 100 µM	> 100 µM	> 100 µM	> 100 µM	> 100 µM	> 100 µM	> 100 µM	> 100 µM	> 100 µM	> 100 µM
Nc1nc(Cl)c(/C=N\O)c(NCC2(CO)CCC2)n1	> 100 µM	> 100 µM	> 100 µM	> 100 µM	> 100 µM	> 100 µM	> 100 µM	> 100 µM	> 100 µM	> 100 µM		> 100 µM	> 100 µM	> 100 µM	> 100 µM			> 100 µM	> 100 µM
CN=c1c2c(c3[nH]c4ccccc4c4cnc1c34)NCCC2=O	> 10 µM	> 10 µM	> 10 µM	> 10 µM	> 10 µM	> 10 µM	> 10 µM	> 10 µM	> 10 µM	> 10 µM	> 10 µM	> 10 µM	> 10 µM	> 10 µM	> 10 µM	> 10 µM		> 10 µM	> 10 µM
CC1(C)CC2=C(Sc3ccccc3N2)C(=O)C1C(=O)C(=O)Nc1cccc([N+](=O)[O-])c1 (stereo not drawn)	> 100 µM	> 100 µM	> 100 µM	> 100 µM	> 100 µM	> 100 µM	> 100 µM	> 100 µM	> 100 µM	> 100 µM	> 100 µM	> 100 µM	> 100 µM	> 100 µM	> 100 µM	> 100 µM	> 100 µM	> 100 µM	
